Measured values as given in patent US11965039B2, “Compstatin analogues and their medical uses” (priority 2018, dated 2024).
Positions of bridges follow the written chain, without caps; N, C: chain ends. Non-standard residues stand in square brackets, D forms with d. Residues, ends and D or L forms follow the SMILES beside them. Trp(1-Me) = Cn1cc(C[C@H](N)C(=O)O)c2ccccc21; 2Nal = N[C@@H](Cc1ccc2ccccc2c1)C(=O)O; Sar = CNCC(=O)O

Columns and labels:
[1] = system: classical complement pathway; assay: In vitro haemolysis assay (inhibition of classical complement pathway); format: cell-based, human; settings: human serum, sensitized sheep red blood cells; Table 3, given as upper bounds; read-out: IC50, inhibition of hemolysis
Outline: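 Compound dilutions preincubated 15 min at room temperature with diluted human serum (titrated per batch for 70-90% maximal haemolysis), then antibody-sensitized sheep RBC (10^7/well) added for 30 min at 37 °C in Tris/casein buffer, pH 7.4. Stopped with EDTA; haemolysis read at 405 nm; IC50 by 4PL fit.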

[2] = Solubility test at 10 mg/mL (visual inspection and light scattering); format: physicochemical; settings: for Solubility, Condition 1: Acetate pH 4; for Solubility, Condition 2: Acetate pH 5; for Solubility, Condition 3: Phosphate pH 6; for Solubility, Condition 4: Phosphate pH 7; for Solubility, Condition 5: Phosphate pH 7.5

CC[C@H](C)[C@H](NC(=O)[C@H](C)NC(=O)[C@H](CO)NC(=O)CNC(=O)[C@H](CCC(=O)O)NC(C)=O)C(=O)N[C@H]1CSSC[C@@H](C(=O)N(C)CC(=O)N[C@@H](CCC(=O)O)C(=O)NCC(=O)N[C@@H](CCC(=O)O)C(N)=O)NC(=O)[C@H](CCCNC(=N)N)NC(=O)[C@H](Cc2c[nH]cn2)NC(=O)[C@H](CCC(=O)O)NC(=O)CNC(=O)[C@H](Cc2c[nH]c3ccccc23)NC(=O)[C@H](CC(=O)O)NC(=O)[C@H](CCC(N)=O)NC(=O)[C@H](Cc2c[nH]c3ccccc23)NC(=O)[C@H]([C@@H](C)CC)NC1=O [Compound 44] (Ac-EGSAICIWQDWGEHRC[Sar]EGE-NH2; disulfide 6-16)
IC50 [1]: < 250 nM
Solubility, Condition 1 [2]: − (“−” denotes lack of solubility at the given condition, as UV absorbance at 340 nm exceeds 0.1 AU and/or it is visibly turbid or contains particles)
Solubility, Condition 2 [2]: − (“−” denotes lack of solubility at the given condition, as UV absorbance at 340 nm exceeds 0.1 AU and/or it is visibly turbid or contains particles)
Solubility, Condition 3 [2]: + (“+” denotes solubility at the given condition, as determined by UV absorbance being less than 0.1 AU at 340 nm and the sample being clear when manually inspected)
Solubility, Condition 4 [2]: + (“+” denotes solubility at the given condition, as determined by UV absorbance being less than 0.1 AU at 340 nm and the sample being clear when manually inspected)
Solubility, Condition 5 [2]: + (“+” denotes solubility at the given condition, as determined by UV absorbance being less than 0.1 AU at 340 nm and the sample being clear when manually inspected)

CC[C@H](C)[C@@H]1NC(=O)[C@@H](NC(=O)[C@H](Cc2ccccc2)NC(=O)[C@H](C)NC(=O)[C@H](CO)NC(=O)CNC(=O)[C@H](CCC(=O)O)NC(C)=O)CSSC[C@@H](C(=O)N(C)CC(=O)N[C@@H](CCC(=O)O)C(N)=O)NC(=O)[C@H](CCCNC(=N)N)NC(=O)[C@H](Cc2c[nH]cn2)NC(=O)[C@H](CCC(=O)O)NC(=O)CNC(=O)[C@H](Cc2c[nH]c3ccccc23)NC(=O)[C@H](CC(=O)O)NC(=O)[C@H](CCC(N)=O)NC(=O)[C@H](Cc2c[nH]c3ccccc23)NC1=O [Compound 45] (Ac-EGSAFCIWQDWGEHRC[Sar]E-NH2; disulfide 6-16)
IC50 [1]: < 100 nM
Solubility, Condition 1 [2]: − (“−” denotes lack of solubility at the given condition, as UV absorbance at 340 nm exceeds 0.1 AU and/or it is visibly turbid or contains particles)
Solubility, Condition 2 [2]: + (“+” denotes solubility at the given condition, as determined by UV absorbance being less than 0.1 AU at 340 nm and the sample being clear when manually inspected)
Solubility, Condition 3 [2]: + (“+” denotes solubility at the given condition, as determined by UV absorbance being less than 0.1 AU at 340 nm and the sample being clear when manually inspected)
Solubility, Condition 4 [2]: + (“+” denotes solubility at the given condition, as determined by UV absorbance being less than 0.1 AU at 340 nm and the sample being clear when manually inspected)
Solubility, Condition 5 [2]: + (“+” denotes solubility at the given condition, as determined by UV absorbance being less than 0.1 AU at 340 nm and the sample being clear when manually inspected)

CC[C@H](C)[C@H](NC(=O)[C@H](C)NC(=O)[C@H](CO)NC(=O)CNC(=O)[C@H](CCC(=O)O)NC(C)=O)C(=O)N[C@H]1CSSC[C@@H](C(=O)N(C)CC(=O)N[C@@H](CCC(=O)O)C(N)=O)NC(=O)[C@H](CCCNC(=N)N)NC(=O)[C@H](Cc2c[nH]cn2)NC(=O)[C@H](CCC(=O)O)NC(=O)CNC(=O)[C@H](Cc2c[nH]c3ccccc23)NC(=O)[C@H](CC(=O)O)NC(=O)[C@H](CCC(N)=O)NC(=O)[C@H](Cc2cn(C)c3ccccc23)NC(=O)[C@H]([C@@H](C)CC)NC1=O [Compound 49] (Ac-EGSAICI[Trp(1-Me)]QDWGEHRC[Sar]E-NH2; disulfide 6-16)
IC50 [1]: < 100 nM
Solubility, Condition 1 [2]: − (“−” denotes lack of solubility at the given condition, as UV absorbance at 340 nm exceeds 0.1 AU and/or it is visibly turbid or contains particles)
Solubility, Condition 2 [2]: − (“−” denotes lack of solubility at the given condition, as UV absorbance at 340 nm exceeds 0.1 AU and/or it is visibly turbid or contains particles)
Solubility, Condition 3 [2]: + (“+” denotes solubility at the given condition, as determined by UV absorbance being less than 0.1 AU at 340 nm and the sample being clear when manually inspected)
Solubility, Condition 4 [2]: + (“+” denotes solubility at the given condition, as determined by UV absorbance being less than 0.1 AU at 340 nm and the sample being clear when manually inspected)
Solubility, Condition 5 [2]: + (“+” denotes solubility at the given condition, as determined by UV absorbance being less than 0.1 AU at 340 nm and the sample being clear when manually inspected)

CC[C@H](C)[C@H](NC(=O)[C@H](C)NC(=O)[C@H](CO)NC(=O)CNC(=O)[C@H](CCC(=O)O)NC(C)=O)C(=O)N[C@H]1CSSC[C@@H](C(=O)N(C)CC(=O)N[C@@H](CCC(=O)O)C(N)=O)NC(=O)[C@H](CCCNC(=N)N)NC(=O)[C@H](Cc2c[nH]cn2)NC(=O)[C@H](CCC(=O)O)NC(=O)CNC(=O)[C@H](Cc2c[nH]c3ccccc23)NC(=O)[C@H](CC(=O)O)NC(=O)[C@H](CCC(N)=O)NC(=O)[C@H](Cc2ccc3ccccc3c2)NC(=O)[C@H]([C@@H](C)CC)NC1=O [Compound 50] (Ac-EGSAICI[2Nal]QDWGEHRC[Sar]E-NH2; disulfide 6-16)
IC50 [1]: < 100 nM
Solubility, Condition 1 [2]: − (“−” denotes lack of solubility at the given condition, as UV absorbance at 340 nm exceeds 0.1 AU and/or it is visibly turbid or contains particles)
Solubility, Condition 2 [2]: − (“−” denotes lack of solubility at the given condition, as UV absorbance at 340 nm exceeds 0.1 AU and/or it is visibly turbid or contains particles)
Solubility, Condition 3 [2]: + (“+” denotes solubility at the given condition, as determined by UV absorbance being less than 0.1 AU at 340 nm and the sample being clear when manually inspected)
Solubility, Condition 4 [2]: + (“+” denotes solubility at the given condition, as determined by UV absorbance being less than 0.1 AU at 340 nm and the sample being clear when manually inspected)
Solubility, Condition 5 [2]: + (“+” denotes solubility at the given condition, as determined by UV absorbance being less than 0.1 AU at 340 nm and the sample being clear when manually inspected)

CC[C@H](C)[C@H](NC(C)=O)C(=O)N[C@H]1CSSC[C@@H](C(=O)N[C@H](C(=O)NCC(=O)N[C@@H](C)C(=O)N[C@@H](CCC(=O)O)C(=O)N[C@@H](CO)C(N)=O)[C@@H](C)O)NC(=O)[C@H](CCCNC(=N)N)NC(=O)[C@H](Cc2c[nH]cn2)NC(=O)[C@H](CCC(=O)O)NC(=O)CNC(=O)[C@H](Cc2c[nH]c3ccccc23)NC(=O)[C@H](CC(=O)O)NC(=O)[C@H](CCC(N)=O)NC(=O)[C@H](Cc2cn(C)c3ccccc23)NC(=O)[C@H]([C@@H](C)CC)NC1=O [Compound 51] (Ac-ICI[Trp(1-Me)]QDWGEHRCTGAES-NH2; disulfide 2-12)
IC50 [1]: < 100 nM
Solubility, Condition 1 [2]: − (“−” denotes lack of solubility at the given condition, as UV absorbance at 340 nm exceeds 0.1 AU and/or it is visibly turbid or contains particles)
Solubility, Condition 2 [2]: − (“−” denotes lack of solubility at the given condition, as UV absorbance at 340 nm exceeds 0.1 AU and/or it is visibly turbid or contains particles)
Solubility, Condition 3 [2]: + (“+” denotes solubility at the given condition, as determined by UV absorbance being less than 0.1 AU at 340 nm and the sample being clear when manually inspected)
Solubility, Condition 4 [2]: + (“+” denotes solubility at the given condition, as determined by UV absorbance being less than 0.1 AU at 340 nm and the sample being clear when manually inspected)
Solubility, Condition 5 [2]: + (“+” denotes solubility at the given condition, as determined by UV absorbance being less than 0.1 AU at 340 nm and the sample being clear when manually inspected)
